What was measured:
[1] = Inhibition of Shh-induced hedgehog signalling pathway in mouse NIH/3T3 cells expressing Gli-Luc reporter gene assessed as reduction in Gli1 transcription activity incubated for 24 hrs in presence of mouse shh stimulation by dual luciferase Assay; format: cell-based; conditions: NIH3T3, 24 h
[2] = Inhibition of Shh-induced hedgehog signalling pathway in mouse MEF cells expressing Gli-Luc reporter gene assessed as reduction in Gli1 transcription activity incubated for 24 hrs in presence of mouse shh stimulation by dual luciferase Assay; format: cell-based

SMILES	IC50 [1] [nM]	IC50 [2] [nM]
CC1=C2C[C@H]3[C@@H](CC=C4C[C@@H](O)CC[C@@]43C)[C@@H]2CC[C@]12O[C@@H]1[C@H](O)[C@H](C)CN[C@H]1[C@H]2C	150	210
C[C@@H]1CN[C@H]2[C@@H](C)[C@@]3(CC[C@@H]4C(=C3CO)C[C@H]3[C@H]4CC=C4C[C@@H](O)CC[C@@]43C)O[C@@H]2C1	2080	2800
CC1=C2C[C@H]3[C@@H](CC=C4C[C@@H](O)CC[C@@]43C)[C@@H]2CC[C@]12O[C@@H]1C[C@H](C)CN[C@H]1[C@H]2C [CYCLOPAMINE]	270	110
